# Laboratory results from patent US20260262643A1, “HERBICIDAL BENZOXAZINES” (FMC CORPORATION, priority 2022, published 2026).
# Experiments:
# [1] = tested on: green foxtail; test: Test C preemergence; assay type: in vivo, Setaria viridis; details: for Foxtail, Green plant response rating: preemergence; for Plant response rating, Foxtail, Green: Preemergence
# Method in brief: (§1)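 Seeds in loam–sand blend received preemergence directed soil spray of test chemicals in non-phytotoxic solvent with surfactant; postemergence treatment was applied at one- to two-leaf stage (2–10 cm). After 10 days in greenhouse, injury rated visually versus untreated controls, 0 (no effect) to 100 (complete control).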
# [2] = tested on: kochia; test: Test C postemergence; assay type: in vivo, Bassia scoparia; details: 10 days
# Method in brief: as §1
# [3] = tested on: barnyardgrass; test: Test C postemergence; assay type: in vivo, Echinochloa crusgalli; details: 10 days
# Method in brief: as §1
# [4] = tested on: wheat; test: Test C postemergence; assay type: in vivo, Triticum aestivum; details: 10 days
# Method in brief: as §1
# [5] = tested on: barnyardgrass; test: Test C preemergence; assay type: in vivo, Echinochloa crusgalli; details: for Barnyardgrass plant response rating: preemergence; for Plant response rating, Barnyardgrass: Preemergence
# Method in brief: as §1
# [6] = tested on: pigweed, palmer; test: Test C postemergence; assay type: in vivo, Amaranthus palmeri; details: 10 days
# Method in brief: as §1
# [7] = tested on: green foxtail; test: Test C postemergence; assay type: in vivo, Setaria viridis; details: 10 days
# Method in brief: as §1
# [8] = tested on: pigweed, palmer; test: Test C preemergence; assay type: in vivo, Amaranthus palmeri; details: for Pigweed, Palmer plant response rating: preemergence; for Plant response rating, Pigweed, Palmer: Preemergence
# Method in brief: as §1
# [9] = tested on: barnyardgrass; test: Test D flooded paddy test; assay type: in vivo, Echinochloa crus-galli; details: 250 g ai/ha, applied to paddy water, visual rating after 13 to 14 days, scale 0 to 100 (0 no effect, 100 complete control)
# Method in brief: (§2)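 Plants grown to the 2-leaf stage; pots flooded to 3 cm above soil at treatment and held at that depth throughout. Test compounds applied directly to the paddy water. After 13 to 14 days in a greenhouse, response was rated visually versus controls on a 0 (no effect) to 100 (complete control) scale.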
# [10] = tested on: kochia; test: Test C preemergence; assay type: in vivo, Bassia scoparia; details: for Kochia plant response rating: preemergence; for Plant response rating, Kochia: Preemergence
# Method in brief: as §1
# [11] = tested on: oat, wild; test: Test C preemergence; assay type: in vivo, Avena fatua; details: for Oat, Wild plant response rating: preemergence; for Plant response rating, Oat, Wild: Preemergence
# Method in brief: as §1
# [12] = tested on: blackgrass; test: Test C preemergence; assay type: in vivo, Alopecurus myosuroides; details: for Blackgrass plant response rating: preemergence; for Plant response rating, Blackgrass: Preemergence
# Method in brief: as §1
# [13] = tested on: soybean; test: Test C postemergence; assay type: in vivo, Glycine max; details: 10 days
# Method in brief: as §1
# [14] = tested on: horseweed; test: Test C postemergence; assay type: in vivo, Erigeron canadensis; details: 10 days
# Method in brief: as §1
# [15] = tested on: ryegrass, Italian; test: Test C postemergence; assay type: in vivo, Lolium multiflorum; details: 10 days
# Method in brief: as §1
# [16] = tested on: wheat; test: Test C preemergence; assay type: in vivo, Triticum aestivum; details: for Wheat plant response rating: preemergence; for Plant response rating, Wheat: Preemergence
# Method in brief: as §1
# [17] = tested on: corn; test: Test C postemergence; assay type: in vivo, Zea mays; details: 10 days
# Method in brief: as §1
# [18] = tested on: galium; test: Test C postemergence; assay type: in vivo, Galium aparine; details: 10 days
# Method in brief: as §1
# [19] = tested on: corn; test: Test C preemergence; assay type: in vivo, Zea mays; details: for Corn plant response rating: preemergence; for Plant response rating, Corn: Preemergence
# Method in brief: as §1
# [20] = tested on: oat, wild; test: Test C postemergence; assay type: in vivo, Avena fatua; details: 10 days
# Method in brief: as §1
# [21] = tested on: ragweed; test: Test C preemergence; assay type: in vivo, Ambrosia artemisiifolia; details: for Ragweed plant response rating: preemergence; for Plant response rating, Ragweed: Preemergence
# Method in brief: as §1
# [22] = tested on: ryegrass, Italian; test: Test C preemergence; assay type: in vivo, Lolium multiflorum; details: for Ryegrass, Italian plant response rating: preemergence; for Plant response rating, Ryegrass, Italian: Preemergence
# Method in brief: as §1
# [23] = tested on: ragweed; test: Test C postemergence; assay type: in vivo, Ambrosia artemisiifolia; details: 10 days
# Method in brief: as §1
# [24] = tested on: blackgrass; test: Test C postemergence; assay type: in vivo, Alopecurus myosuroides; details: 10 days
# Method in brief: as §1
# [25] = tested on: sedge, umbrella; test: Test D flooded paddy test; assay type: in vivo, Cyperus difformis; details: 250 g ai/ha, applied to paddy water, visual rating after 13 to 14 days, scale 0 to 100 (0 no effect, 100 complete control)
# Method in brief: as §2
# [26] = tested on: rice; test: Test D flooded paddy test; assay type: in vivo, Oryza sativa; details: 250 g ai/ha, applied to paddy water, visual rating after 13 to 14 days, scale 0 to 100 (0 no effect, 100 complete control)
# Method in brief: as §2
# [27] = tested on: ducksalad; test: Test D flooded paddy test; assay type: in vivo, Heteranthera limosa; details: 250 g ai/ha, applied to paddy water, visual rating after 13 to 14 days, scale 0 to 100 (0 no effect, 100 complete control)
# Method in brief: as §2
# [28] = tested on: soybean; test: Test C preemergence; assay type: in vivo, Glycine max; details: for Soybean plant response rating: preemergence; for Plant response rating, Soybean: Preemergence
# Method in brief: as §1
# [29] = 500 g ai/ha, 0 to 100 scale (0 no effect, 100 complete control)
# [30] = 125 g ai/ha, 0 to 100 scale, 0 no effect, 100 complete control
# [31] = 500 g ai/ha, postemergence, 0 to 100 scale (0 no effect, 100 complete control)
# [32] = Postemergence, 125 g ai/ha, 0 to 100 scale (0 no effect, 100 complete control)
# [33] = 500 g ai/ha, visual rating after 10 days, 0 to 100 scale (0 no effect, 100 complete control)
# [34] = Test C, 125 g ai/ha, 0 to 100 scale (0 no effect, 100 complete control)
# [35] = 125 g ai/ha, postemergence, 0 to 100 scale, 0 no effect, 100 complete control
# [36] = Postemergence, 500 g ai/ha, visual 0 to 100 scale (0 no effect, 100 complete control)
structure (smiles),measurement,setting,value
CCOC[C@H]1CN(C(=O)c2cc(-n3cnc(C(C)(C)C)n3)cc3c2OCCO3)c2cccc(Cl)c2O1 [Compound 388],"Foxtail, Green plant response rating",[1]; [29],100
same,"Plant response rating, Foxtail, Green",[1]; [30],60
same,"Plant response rating, Kochia",[2]; [31],90
same,"Plant response rating, Kochia",[2]; [32],90
same,"Plant response rating, Barnyardgrass",[3]; [31],20
same,"Plant response rating, Barnyardgrass",[3]; [32],10
same,"Plant response rating, Wheat",[4]; [31],10
same,"Plant response rating, Wheat",[4]; [32],10
same,Barnyardgrass plant response rating,[5]; [29],90
same,"Plant response rating, Barnyardgrass",[5]; [30],50
same,"Plant response rating, Pigweed, Palmer",[6]; [31],100
same,"Plant response rating, Pigweed, Palmer",[6]; [32],100
same,"Plant response rating, Foxtail, Green",[7]; [31],90
same,"Plant response rating, Foxtail, Green",[7]; [32],10
same,"Pigweed, Palmer plant response rating",[8]; [29],100
same,"Plant response rating, Pigweed, Palmer",[8]; [30],100
same,"Plant response rating, Barnyardgrass (Flood)",[9],0
same,Kochia plant response rating,[10]; [29],100
same,"Plant response rating, Kochia",[10]; [30],40
same,"Oat, Wild plant response rating",[11]; [29],40
same,"Plant response rating, Oat, Wild",[11]; [30],20
same,Blackgrass plant response rating,[12]; [29],40
same,"Plant response rating, Blackgrass",[12]; [30],10
same,"Plant response rating, Soybean",[13]; [31],100
same,"Plant response rating, Soybean",[13]; [32],100
same,"Plant response rating, Horseweed",[14]; [31],30
same,"Plant response rating, Horseweed",[14]; [32],0
same,"Plant response rating, Ryegrass, Italian",[15]; [31],30
same,"Plant response rating, Ryegrass, Italian",[15]; [32],20
same,Wheat plant response rating,[16]; [29],20
same,"Plant response rating, Wheat",[16]; [30],20
same,"Plant response rating, Corn",[17]; [31],30
same,"Plant response rating, Corn",[17]; [32],10
same,"Plant response rating, Galium",[18]; [31],100
same,"Plant response rating, Galium",[18]; [32],70
same,Corn plant response rating,[19]; [29],10
same,"Plant response rating, Corn",[19]; [30],. 10
same,"Plant response rating, Oat, Wild",[20]; [31],40
same,"Plant response rating, Oat, Wild",[20]; [32],20
same,Ragweed plant response rating,[21]; [29],60
same,"Plant response rating, Ragweed",[21]; [30],60
same,"Ryegrass, Italian plant response rating",[22]; [29],60
same,"Plant response rating, Ryegrass, Italian",[22]; [30],50
same,"Plant response rating, Ragweed",[23]; [31],50
same,"Plant response rating, Ragweed",[23]; [32],60
same,"Plant response rating, Blackgrass",[24]; [31],0
same,"Plant response rating, Blackgrass",[24]; [32],0
same,"Plant response rating, Sedge, Umbrella (Flood)",[25],0
same,"Plant response rating, Rice (Flood)",[26],0
same,"Plant response rating, Ducksalad (Flood)",[27],0
same,Soybean plant response rating,[28]; [29],90
same,"Plant response rating, Soybean",[28]; [30],90
C[C@H]1CN(C(=O)c2cc(-n3cnc(C4CCC4)n3)cc3c2OCCO3)c2cccc(Cl)c2O1 [Compound 157],"Plant response rating, Foxtail, Green",[1]; [33],100
same,"Foxtail, Green plant response rating",[1]; [34],100
same,"Plant response rating, Kochia",[2]; [35],90
same,"Plant response rating, Kochia",[2]; [36],100
same,"Plant response rating, Barnyardgrass",[3]; [35],30
same,"Plant response rating, Barnyardgrass",[3]; [36],70
same,"Plant response rating, Wheat",[4]; [35],20
same,"Plant response rating, Wheat",[4]; [36],30
same,Barnyardgrass plant response rating,"[5]; 125 g ai/ha, 0 to 100 scale (0 no effect, 100 complete control)",50
same,"Plant response rating, Barnyardgrass",[5]; [33],90
same,"Plant response rating, Pigweed, Palmer",[6]; [35],90
same,"Plant response rating, Pigweed, Palmer",[6]; [36],100
same,"Plant response rating, Foxtail, Green",[7]; [35],70
same,"Plant response rating, Foxtail, Green",[7]; [36],90
same,"Plant response rating, Pigweed, Palmer",[8]; [33],100
same,"Pigweed, Palmer plant response rating",[8]; [34],100
same,"Plant response rating, Barnyardgrass (Flood)",[9],15
same,"Plant response rating, Kochia",[10]; [33],90
same,Kochia plant response rating,[10]; [34],20
same,"Plant response rating, Oat, Wild",[11]; [33],50
same,"Oat, Wild plant response rating",[11]; [34],0
same,"Plant response rating, Blackgrass",[12]; [33],30
same,Blackgrass plant response rating,[12]; [34],30
same,"Plant response rating, Soybean",[13]; [35],100
same,"Plant response rating, Soybean",[13]; [36],100
same,"Plant response rating, Horseweed",[14]; [35],30
same,"Plant response rating, Horseweed",[14]; [36],90
same,"Plant response rating, Ryegrass, Italian",[15]; [35],30
same,"Plant response rating, Ryegrass, Italian",[15]; [36],80
same,"Plant response rating, Wheat",[16]; [33],30
same,Wheat plant response rating,[16]; [34],0
same,"Plant response rating, Corn",[17]; [35],10
same,"Plant response rating, Corn",[17]; [36],20
same,"Plant response rating, Galium",[18]; [35],100
same,"Plant response rating, Galium",[18]; [36],100
same,"Plant response rating, Corn",[19]; [33],0
same,Corn plant response rating,[19]; [34],0
same,"Plant response rating, Oat, Wild",[20]; [35],20
same,"Plant response rating, Oat, Wild",[20]; [36],20
same,"Plant response rating, Ragweed",[21]; [33],80
same,Ragweed plant response rating,[21]; [34],90
same,"Plant response rating, Ryegrass, Italian",[22]; [33],90
same,"Ryegrass, Italian plant response rating",[22]; [34],70
same,"Plant response rating, Ragweed",[23]; [35],100
same,"Plant response rating, Ragweed",[23]; [36],100
same,"Plant response rating, Blackgrass",[24]; [35],60
same,"Plant response rating, Blackgrass",[24]; [36],70
same,"Plant response rating, Sedge, Umbrella (Flood)",[25],45
same,"Plant response rating, Rice (Flood)",[26],20
same,"Plant response rating, Ducksalad (Flood)",[27],0
same,"Plant response rating, Soybean",[28]; [33],60
same,Soybean plant response rating,[28]; [34],50
